# Measurements published in patent US20140155609A9, “QUINOLINE DERIVATIVE COMPOUND, METHOD FOR PREPARING SAME, AND PHARMACEUTICAL COMPOSITION CONTAINING SAME” (Dong-A ST Co., Ltd., priority 2010, published 2014).
# Tests used:
# [1] = target: T1, human dopamine D2 receptor (Homo sapiens, UniProt P14416); assay: Assay for affinity for dopamine receptor (3H-spiperone competitive binding); settings: 10 μM compound; 0.16 nM tritium spiperone; CHO cells transfected with human dopamine D2; mean of two experiments
# T1 construct: expressed in transfected cells; host or cells: CHO (Chinese hamster ovary) cells
# T1 sequence (P14416 whole entry): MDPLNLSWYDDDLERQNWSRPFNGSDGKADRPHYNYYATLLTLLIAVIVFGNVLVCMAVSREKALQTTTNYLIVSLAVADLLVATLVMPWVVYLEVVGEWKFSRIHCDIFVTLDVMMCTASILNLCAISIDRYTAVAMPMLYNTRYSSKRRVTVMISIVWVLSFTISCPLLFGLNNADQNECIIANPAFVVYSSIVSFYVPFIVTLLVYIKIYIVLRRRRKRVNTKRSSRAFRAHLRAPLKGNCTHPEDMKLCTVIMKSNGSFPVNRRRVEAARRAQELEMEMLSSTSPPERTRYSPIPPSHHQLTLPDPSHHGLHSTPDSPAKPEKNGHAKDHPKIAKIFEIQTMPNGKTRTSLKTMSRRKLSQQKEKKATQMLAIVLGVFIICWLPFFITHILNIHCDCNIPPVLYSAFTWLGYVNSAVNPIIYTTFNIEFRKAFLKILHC
# Description: Affinity of the compounds of the present invention for the dopamine-D2 receptor, which is found in the wall of the gastric tract of mammals and inhibits gastric motility, was determined by measuring competitive inhibition against the binding to the receptor of a radio-labeled ligand which is known for its affinity for the receptor. In this regard, the experiment was performed according to the method described in [Heys G et al. Mol. Endocrinol. 6:920, 1992] and [Grandy D K et al. Proc Natl Acad Sci USA. 86:9762, 1989].
# In tris-HCl buffer ([…], pH 7.4, 120 mM NaCl, 5 mM KCl, 2 mM CaCl2, 1 mM MgCl2) 150 μg of Chinese hamster ovary (CHO) cells transfected with a human dopamine D2, gene were incubated at 25° C. for 120 min with 0.16 nM of tritium Spiperone (^3[H] Spiperon [NEN, 250 μCi]) and 10 μM of the compound of interest. After completion of the incubation, the incubation mixture was filtered through Whatman GF/B filter (unifilter-96 Lot: 6005177, PerkinElmer) to separate ligand-bound receptors. […] Then, 10 mL of a scintillation cocktail (Lot: 03999, Fluka) was added and reacted for 16 hrs or longer to measure radiation activity using a beta-counter (Packcard) in order to calculate the quantity of tritium spiperone bound to the receptor. […] The experiment was independently carried out twice, and receptor affinity was calculated using the following Equation 1. […]
# serotonin-1B receptor = target: T2, serotonin-1B receptor (Rattus norvegicus, UniProt P28564); assay: Assay for affinity for serotonin-1B receptor (125I cyanopindolol binding, rat cerebral cortex membranes); settings: 10 μM compound, mean of two experiments
# T2 construct: cell membranes of the cerebral cortex excised from male Winstar rats; from tissue; host or cells: rat cerebral cortex membranes (male Wistar rats)
# T2 sequence (P28564 whole entry): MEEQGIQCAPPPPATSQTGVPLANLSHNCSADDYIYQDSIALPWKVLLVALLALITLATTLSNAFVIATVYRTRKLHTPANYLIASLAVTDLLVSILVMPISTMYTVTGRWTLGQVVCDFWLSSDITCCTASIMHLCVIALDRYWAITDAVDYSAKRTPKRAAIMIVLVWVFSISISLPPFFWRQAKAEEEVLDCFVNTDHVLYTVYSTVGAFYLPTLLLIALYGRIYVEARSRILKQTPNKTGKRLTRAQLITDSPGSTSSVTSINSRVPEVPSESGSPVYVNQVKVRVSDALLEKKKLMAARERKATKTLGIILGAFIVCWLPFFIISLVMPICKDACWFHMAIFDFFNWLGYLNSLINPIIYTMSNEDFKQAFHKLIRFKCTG
# Description: Compounds of the present invention were examined for affinity for the serotonin-1B receptor which can exert a relaxation effect on the stomach and relieve impaired gastric accommodation of functional dyspepsia patients in response to an agonist.
# In a Tris-HCl buffer (50 mM Tris-HCl, pH 7.4, 120 mM NaCl, 5 mM KCl, 2 mM CaCl2, 1 mM MgCl2), 4 mg of cell membranes of the cerebral cortex excised from male Winstar rats, each weighing 175±25 g, was incubated at 37° C. for 1.5 hrs with […] of ^125[I] cyanopindolol (PerkinElmer, 100 μCi) and 10 μM of the compound of interest of the present invention per well. After completion of the incubation, the incubation mixture was filtered through Whatman GF/B filter (unifilter-96, Lot: 6005177, PerkinElmer) to separate ligand-bound receptors. These bound receptors were washed three times with 5 mL of a Tris-HCl buffer. Then, 10 mL of a scintillation cocktail (Lot: 03999, Fluka) was added, and reacted for 16 hrs or to measure a radiation activity using a beta-counter (Packcard) in order to calculate the quantity of ^125[I] cyanopindolol bound to the receptor.
# Meanwhile, 10 μM of serotonin (H9523, Sigma) was incubated in the presence of […] of ^125[I] cyanopindolol to determine a nonspecific binding value. The experiment was independently carried out twice, and receptor affinity was calculated using the following Equation 3. […]
# normal rat = assay: Gastric emptying effect on normal rat; format: in vivo, Sprague-Dawley rats
# Description: Gastric emptying activity of the compounds of the present invention was examined in the following experiment.
# Sprague-Dawley rats with an age of 6 weeks were divided into groups according to weight, and acclimated for one week at a temperature of 22˜24° C. and a humidity of 60-80% while a standard diet and water were provided. Thereafter, they were starved for 24 hrs before an experiment while water was provided. From 3 hrs before the experiment, no more water was provided. A 3% hydroxy propyl methyl cellulose solution containing the compound of Example in an amount of 10 μg/kg was orally administered at a dose of 1 mL to each rat.
# After 45 min, a semi-solid test meal (0.05% phenol red solution containing 1.5% MC), prepared by mashing feeds in water, was orally administered in an amount of 2 mL to each rat. After 35 min, the SD rats were killed, and the stomach was excised, and weighed carefully lest the gut content was leaked. Subsequently, the stomach was washed with distilled water to remove the gut content, dried, and weighed again, in order to calculate the weight of the semi-solid test meal left in the gut. In Table 4, the control was orally administered with 1 mL of 3% […].
# Gastric Emptying(%)=[1−(weight of semi-solid test meal left in gut/weight of semi-solid test meal at 0-time)]×100 [Equation 4] […]
# human 5-HT1A receptor = target: T3, human 5-HT1A receptor (Homo sapiens, UniProt P08908); assay: Assay for affinity for serotonin-1A receptor (3H 8-OH-DPAT competitive binding); settings: 10 μM compound; 1.5 nM 3[H] 8-OH-DPAT; CHO cells transfected with human 5-HT1A receptor; mean of two experiments
# T3 construct: expressed in transfected cells; host or cells: CHO (Chinese hamster ovary) cells
# T3 sequence (P08908 1-422): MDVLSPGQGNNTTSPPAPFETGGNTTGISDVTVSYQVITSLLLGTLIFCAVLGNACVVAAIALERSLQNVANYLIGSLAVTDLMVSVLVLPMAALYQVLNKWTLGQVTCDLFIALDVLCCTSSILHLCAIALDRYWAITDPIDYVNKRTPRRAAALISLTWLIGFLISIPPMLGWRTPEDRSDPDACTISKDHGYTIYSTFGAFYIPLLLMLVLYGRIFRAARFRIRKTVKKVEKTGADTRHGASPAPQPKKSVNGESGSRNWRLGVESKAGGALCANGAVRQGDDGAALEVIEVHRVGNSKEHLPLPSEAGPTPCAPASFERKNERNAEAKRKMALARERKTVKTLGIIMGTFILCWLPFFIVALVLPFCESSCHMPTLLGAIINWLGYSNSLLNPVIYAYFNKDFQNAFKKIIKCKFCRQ
# Description: Compounds of the present invention were examined for affinity for the serotonin-1A receptor which can increase gastric accommodation in response to an agonist.
# In tris-HCl buffer (50 mM Tris-HCl, pH 7.4, 120 mM NaCl, 5 mM KCl, 2 mM CaCl2, 1 mM MgCl2), 150 μg of Chinese hamster ovary (CHO) cells transfected with a human […] 5-HT1A receptor were incubated at 37° C. for 1.5 hrs with 1.5 nM of ^3[H] 8-OH-DPAT and 10 μM of the compound of interest of Example. After completion of the incubation, the incubation mixture was filtered through Whatman GF/B filter (unifilter-96, Lot: 6005177, PerkinElmer) to separate ligand-bound receptors. These bound receptors were washed three times with 5 mL of a Tris-HCl buffer. Then, 10 mL of a scintillation cocktail (Lot: 03999, Fluka) was added, and reacted for 16 hrs or longer with to measure radiation activity using a beta-counter (Packcard) in order to calculate the quantity of ^3[H] 8-OH-DPAT bound to the receptor.
# Meanwhile, 10 μM of metergoline was also incubated in the presence of 1.5 nM of ^3[H] 8-OH-DPAT to determine a nonspecific binding value. The experiment was independently carried out twice, and receptor affinity was calculated using the following Equation 2. […]
smiles,measurement,setting,value
"CCOC(=O)CCC(=O)N1CCc2cc(OC)c(OC)c3c2[C@@H]1Cc1cc(OC)c(OC)cc1-3 [Example 1, (S)-4-oxo-4-(1,2,9,10-tetramethoxy-4,5,6a,7-tetrahydro-dibenzo[de,g]quinoline-6-yl)-butyric acid ethyl ester]",Affinity (%),[1],46%
same,Affinity (%),serotonin-1B receptor,92%
same,Gastric Emptying (%),"normal rat; dose 10 μg/kg oral, 45 min before semi-solid test meal, stomach excised 35 min after meal, control 24.3",47.8%
same,increase of gastric emptying compared to the control,"normal rat; normal rats, oral dose 10 μg/kg",roughly two-fold
same,Affinity (%),human 5-HT1A receptor,41%
